Assay results taken from patent US8648066B2 (Exelixis, Inc., priority 2009, dated 2014).

What was measured:
PI3Kα = PI3Kα (Homo sapiens, UniProt P42336); assay: PI3K biochemical assay (luciferase-luciferin ATP consumption); conditions: 1.5 nM enzyme, 1 μM ATP, 10 μM PIP2; read-out: IC50 for PI3Kα in this assay
Description: PI3Kα activity is measured as the percent of ATP consumed following the kinase reaction using luciferase-luciferin-coupled chemiluminescence. Reactions were conducted in 384-well white, medium binding microtiter plates (Greiner). Kinase reactions were initiated by combining test compounds, ATP, substrate (PIP2), and kinase in a 20 μL volume in a buffer solution. The standard PI3Kalpha assay buffer is composed 50 mM Tris, pH 7.5, 1 mM EGTA, 10 mM MgCl2, 1 mM DTT and 0.03% CHAPS. The standard assay concentrations for enzyme, ATP, and substrate are 1.5 nM, 1 μM, and 10 μM, respectively. The reaction mixture was incubated at ambient temperature for approximately 2 h. Following the kinase reaction, a 10 μL aliquot of luciferase-luciferin mix (Promega Kinase-Glo) was added and the chemiluminescence signal measured using a Victor2 plate reader (Perkin Elmer). Total ATP consumption was limited to 40-60% and IC50 values of control compounds correlate well with literature references. Substituting PI3Kα with PI3Kβ, PI3Kγ, or PI3Kδ, the inhibitory activity of the compounds for the other isoforms of I3K were measured.

mTOR/GbL/Raptor (mTORC1) = mTOR/GbL/Raptor (mTORC1) (Homo sapiens, UniProt P42345); assay: mTOR/GbL/Raptor (mTORC1) ELISA assay; format: biochemical; conditions: phosphorylation of 4E-BP1; 0.2 nM mTORC1, 10 μM ATP; read-out: IC50 in this assay (mTORC1 ELISA)
How it was run: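 ELISA read-out: phospho-4E-BP1 captured on Ni-chelate plates and detected with anti-phospho antibody plus HRP-anti-IgG luminescence. The kinase step ran 120 min at ambient temperature with 0.2 nM human mTORC1, 10 µM ATP, 50 nM His-4E-BP1, 10 mM MnCl2, pH 7.2 HEPES.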

Chain of PI3Kα (P42336 whole entry, species assumed): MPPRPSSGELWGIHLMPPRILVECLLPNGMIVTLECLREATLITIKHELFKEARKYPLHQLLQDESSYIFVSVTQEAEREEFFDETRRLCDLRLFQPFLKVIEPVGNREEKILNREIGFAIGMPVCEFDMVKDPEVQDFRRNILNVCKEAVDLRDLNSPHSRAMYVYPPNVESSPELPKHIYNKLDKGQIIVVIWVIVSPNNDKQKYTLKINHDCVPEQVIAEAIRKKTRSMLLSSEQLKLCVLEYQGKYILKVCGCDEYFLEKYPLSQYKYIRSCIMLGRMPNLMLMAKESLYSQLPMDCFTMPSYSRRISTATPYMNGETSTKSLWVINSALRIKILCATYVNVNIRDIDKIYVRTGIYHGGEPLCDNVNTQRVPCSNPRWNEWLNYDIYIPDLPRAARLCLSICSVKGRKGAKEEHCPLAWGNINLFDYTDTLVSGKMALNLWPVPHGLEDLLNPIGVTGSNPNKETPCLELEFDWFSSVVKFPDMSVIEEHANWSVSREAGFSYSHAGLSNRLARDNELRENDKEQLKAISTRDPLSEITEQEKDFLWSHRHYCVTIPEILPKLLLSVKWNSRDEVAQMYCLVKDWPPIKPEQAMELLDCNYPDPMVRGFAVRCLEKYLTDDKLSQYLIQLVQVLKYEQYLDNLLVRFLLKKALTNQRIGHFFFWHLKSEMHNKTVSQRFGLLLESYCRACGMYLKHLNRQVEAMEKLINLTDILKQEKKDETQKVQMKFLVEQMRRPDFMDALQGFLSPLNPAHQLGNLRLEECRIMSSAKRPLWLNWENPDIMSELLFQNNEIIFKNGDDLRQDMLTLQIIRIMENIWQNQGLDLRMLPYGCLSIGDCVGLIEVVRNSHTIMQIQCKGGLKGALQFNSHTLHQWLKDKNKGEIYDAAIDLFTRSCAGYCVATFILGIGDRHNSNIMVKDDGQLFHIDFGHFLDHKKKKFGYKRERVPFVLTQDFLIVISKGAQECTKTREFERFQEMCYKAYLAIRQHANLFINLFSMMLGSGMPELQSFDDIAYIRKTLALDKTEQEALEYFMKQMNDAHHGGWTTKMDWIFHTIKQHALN
Chain of PI3Kα (P27986 whole entry partner, species assumed): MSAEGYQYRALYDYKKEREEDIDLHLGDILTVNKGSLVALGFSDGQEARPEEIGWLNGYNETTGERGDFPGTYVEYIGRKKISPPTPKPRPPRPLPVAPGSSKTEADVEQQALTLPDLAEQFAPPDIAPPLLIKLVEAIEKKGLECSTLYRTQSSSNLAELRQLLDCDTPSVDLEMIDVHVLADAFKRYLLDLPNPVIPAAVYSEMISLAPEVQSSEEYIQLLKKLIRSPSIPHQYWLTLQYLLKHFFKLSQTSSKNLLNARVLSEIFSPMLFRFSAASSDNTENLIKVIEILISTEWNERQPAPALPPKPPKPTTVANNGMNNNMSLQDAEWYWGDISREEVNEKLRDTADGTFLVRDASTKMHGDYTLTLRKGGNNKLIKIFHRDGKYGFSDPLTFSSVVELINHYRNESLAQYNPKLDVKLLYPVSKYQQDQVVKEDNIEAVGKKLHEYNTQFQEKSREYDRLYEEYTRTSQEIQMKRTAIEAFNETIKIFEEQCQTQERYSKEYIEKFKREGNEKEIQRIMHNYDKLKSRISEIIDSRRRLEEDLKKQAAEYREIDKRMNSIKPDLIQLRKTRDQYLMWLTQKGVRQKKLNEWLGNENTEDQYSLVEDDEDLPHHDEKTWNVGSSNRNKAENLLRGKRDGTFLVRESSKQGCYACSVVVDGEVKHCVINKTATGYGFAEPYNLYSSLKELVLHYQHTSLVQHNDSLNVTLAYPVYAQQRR

IC50 (PI3Kα) [nM] | IC50 (mTOR/GbL/Raptor (mTORC1)) [nM] | SMILES
≥ 2000 | 1000 to 2000 | COC(=O)Nc1cc(-c2ccc3c(c2)CN(c2ncnc4c2CC(C)(C)CC4)CCO3)cnc1Cl [Example 581, methyl {2-chloro-5-[4-(6,6-dimethyl-5,6,7,8-tetrahydroquinazolin-4-yl)-2,3,4,5-tetrahydro-1,4-benzoxazepin-7-yl]pyridin-3-yl}carbamate]
≥ 2000 | 250 to 1000 | Cc1ncnc(N2CCOc3ccc(-c4ccc(C(=O)N[C@H]5CCNC5)cc4)cc3C2)c1Cc1ccc(F)cc1 [Example 173, 4-(4-{5-[(4-fluorophenyl)methyl]-6-methylpyrimidin-4-yl}-2,3,4,5-tetrahydro-1,4-benzoxazepin-7-yl)-N-[(3S)-pyrrolidin-3-yl]benzamide]
1000 to 2000 | ≥ 2000 | CCNc1nc2ccc(-c3ccc4c(c3)CN(c3nc(C)nc5cc(OCC)ccc35)CCO4)cc2[nH]1 [Example 288, N-ethyl-6-{4-[7-(ethyloxy)-2-methylquinazolin-4-yl]-2,3,4,5-tetrahydro-1,4-benzoxazepin-7-yl}-1H-benzimidazol-2-amine]
1000 to 2000 | 250 to 1000 | Cc1cc(N2CCOc3ccc(-c4ccc5[nH]cnc5c4)cc3C2)nc(N)n1 [Example 688, 4-[7-(1H-benzimidazol-5-yl)-2,3-dihydro-1,4-benzoxazepin-4(5H)-yl]-6-methylpyrimidin-2-amine]
1000 to 2000 | 250 to 1000 | Cc1ncc(S(=O)(=O)N2CCOCC2)c(N2CCOc3ccc(-c4cnc5nc(C)[nH]c5c4)cc3C2)n1 [Example 561, 7-(2-methyl-1H-imidazo[4,5-b]pyridin-6-yl)-4-[2-methyl-5-(morpholin-4-ylsulfonyl)pyrimidin-4-yl]-2,3,4,5-tetrahydro-1,4-benzoxazepine]
1000 to 2000 | 250 to 1000 | Cc1nc2ncc(-c3ccc4c(c3)CN(c3ncnc5c3C(C(F)(F)F)CCC5)CCO4)cc2[nH]1 (stereo not drawn) [Example 562, 7-(2-methyl-1H-imidazo[4,5-b]pyridin-6-yl)-4-[5-(trifluoromethyl)-5,6,7,8-tetrahydroquinazolin-4-yl]-2,3,4,5-tetrahydro-1,4-benzoxazepine]
1000 to 2000 | 250 to 1000 | CC(=O)Nc1cc(-c2ccc3c(c2)CN(c2ncnc4c2CC(C)(C)CC4)CCO3)cnc1Cl [Example 622, N-{2-chloro-5-[4-(6,6-dimethyl-5,6,7,8-tetrahydroquinazolin-4-yl)-2,3,4,5-tetrahydro-1,4-benzoxazepin-7-yl]pyridin-3-yl}acetamide]
1000 to 2000 | ≥ 2000 | COc1ccc2c(N3CCOc4ccc(-c5ccc6ncsc6c5)cc4C3)nc(C)nc2c1 [Example 294, 7-(1,3-benzothiazol-6-yl)-4-[2-methyl-7-(methyloxy)quinazolin-4-yl]-2,3,4,5-tetrahydro-1,4-benzoxazepine]
≥ 2000 | 1000 to 2000 | c1ccc2sc(-c3ccc4c(c3)CN(c3ccnc5ccccc35)CCO4)cc2c1 [Example 206, 7-(1-benzothien-2-yl)-4-quinolin-4-yl-2,3,4,5-tetrahydro-1,4-benzoxazepine]
1000 to 2000 | ≥ 2000 | CN(C)Cc1nc2c(c(N3CCOc4ccc(-c5cccc(C(N)=O)c5)cc4C3)n1)CC(C)(C)CC2 [Example 433, 3-(4-{2-[(dimethylamino)methyl]-6,6-dimethyl-5,6,7,8-tetrahydroquinazolin-4-yl}-2,3,4,5-tetrahydro-1,4-benzoxazepin-7-yl)benzamide]
1000 to 2000 | 1000 to 2000 | c1ccc2ncc(-c3ccc4c(c3)CN(c3ccnc5ccccc35)CCO4)cc2c1 [Example 205, 7-quinolin-3-yl-4-quinolin-4-yl-2,3,4,5-tetrahydro-1,4-benzoxazepine]
≥ 2000 | 250 to 1000 | Cc1nc2ncc(-c3ccc4c(c3)CN(c3ncnc5c3ccn5C)CCO4)cc2[nH]1 [Example 557, 7-(2-methyl-1H-imidazo[4,5-b]pyridin-6-yl)-4-(7-methyl-7H-pyrrolo[2,3-d]pyrimidin-4-yl)-2,3,4,5-tetrahydro-1,4-benzoxazepine]
1000 to 2000 | ≥ 2000 | COc1ccc(-c2ccc3c(c2)CN(c2nc(CN(C)C)nc4c2CC(C)(C)CC4)CCO3)cc1 [Example 329, 1-(6,6-dimethyl-4-{7-[4-(methyloxy)phenyl]-2,3-dihydro-1,4-benzoxazepin-4(5H)-yl}-5,6,7,8-tetrahydroquinazolin-2-yl)-N,N-dimethylmethanamine]
≥ 2000 | ≥ 2000 | CCNC(=O)c1cccc(-c2ccc3c(c2)CN(c2nc(C)nc4cc(OC)ccc24)CCO3)c1 [Example 638, N-ethyl-3-{4-[2-methyl-7-(methyloxy)quinazolin-4-yl]-2,3,4,5-tetrahydro-1,4-benzoxazepin-7-yl}benzamide]
≥ 2000 | ≥ 2000 | Cc1nc2ccc(-c3ccc4c(c3)CN(c3ccnc(N)c3)CCO4)cc2[nH]1 [Example 262, 4-[7-(2-methyl-1H-benzimidazol-6-yl)-2,3-dihydro-1,4-benzoxazepin-4(5H)-yl]pyridin-2-amine]
≥ 2000 | ≥ 2000 | CCn1ccc2cc(-c3ccc4c(c3)CN(c3ccnc5ccccc35)CCO4)cnc21 [Example 223, 7-(1-ethyl-1H-pyrrolo[2,3-b]pyridin-5-yl)-4-quinolin-4-yl-2,3,4,5-tetrahydro-1,4-benzoxazepine]

More lines, now with the values behind:

SMILES | IC50 (PI3Kα) [nM] | IC50 (mTOR/GbL/Raptor (mTORC1)) [nM]
CSc1nc2c(c(N3CCOc4ccc(-c5ccc6nc(C)[nH]c6c5)cc4C3)n1)CC(C)C2 (stereo not drawn) [Example 71, 7-(2-methyl-1H-benzimidazol-6-yl)-4-[6-methyl-2-(methylthio)-6,7-dihydro-5H-cyclopenta[d]pyrimidin-4-yl]-2,3,4,5-tetrahydro-1,4-benzoxazepine] | 1000 to 2000 | 1000 to 2000
Cc1nc2ccc(-c3ccc4c(c3)CN(c3nc(SCc5ccccc5)nc5c3CCC5)CCO4)cc2[nH]1 [Example 53, 7-(2-methyl-1H-benzimidazol-6-yl)-4-{2-[(phenylmethyl)thio]-6,7-dihydro-5H-cyclopenta[d]pyrimidin-4-yl}-2,3,4,5-tetrahydro-1,4-benzoxazepine] | ≥ 2000 | 250 to 1000
COC(=O)Nc1nc2cc(-c3ccc4c(c3)CN(c3ccnc5ccccc35)CCO4)ccc2n1C [Example 115, methyl [1-methyl-5-(4-quinolin-4-yl-2,3,4,5-tetrahydro-1,4-benzoxazepin-7-yl)-1H-benzimidazol-2-yl]carbamate] | 1000 to 2000 | ≥ 2000
Cc1nc2ccc(-c3ccc4c(c3)CN(c3ncnc(Cc5ccccc5)c3C)CCO4)cc2[nH]1 [Example 41, 7-(2-methyl-1H-benzimidazol-6-yl)-4-[5-methyl-6-(phenylmethyl)pyrimidin-4-yl]-2,3,4,5-tetrahydro-1,4-benzoxazepine] | 1000 to 2000 | 250 to 1000
Cc1nc2ccc(-c3ccc4c(c3)CN(c3ncnc5[nH]ncc35)CCO4)cc2[nH]1 [Example 52, 7-(2-methyl-1H-benzimidazol-6-yl)-4-(1H-pyrazolo[3,4-d]pyrimidin-4-yl)-2,3,4,5-tetrahydro-1,4-benzoxazepine] | ≥ 2000 | 1000 to 2000
CCn1cnc2cc(-c3ccc4c(c3)CN(c3ccnc5ccccc35)CCO4)ccc21 [Example 127, 7-(1-ethyl-1H-benzimidazol-5-yl)-4-quinolin-4-yl-2,3,4,5-tetrahydro-1,4-benzoxazepine] | ≥ 2000 | 250 to 1000
Cc1nccc(N2CCOc3ccc(-c4cnc5nc(C)[nH]c5c4)cc3C2)n1 [Example 85, 7-(2-methyl-1H-imidazo[4,5-b]pyridin-6-yl)-4-(2-methylpyrimidin-4-yl)-2,3,4,5-tetrahydro-1,4-benzoxazepine] | 1000 to 2000 | 50 to 250
Cc1nc2ccc(-c3ccc4c(c3)CN(c3ncnc(C)c3CC(C)C)CCO4)cc2[nH]1 [Example 67, 7-(2-methyl-1H-benzimidazol-6-yl)-4-[6-methyl-5-(2-methylpropyl)pyrimidin-4-yl]-2,3,4,5-tetrahydro-1,4-benzoxazepine] | 1000 to 2000 | 250 to 1000
Cc1nc2ccc(-c3ccc4c(c3)CN(c3ccccn3)CCO4)cc2[nH]1 [Example 104, 7-(2-methyl-1H-benzimidazol-6-yl)-4-pyridin-2-yl-2,3,4,5-tetrahydro-1,4-benzoxazepine] | ≥ 2000 | ≥ 2000
Cc1nc2cc(-c3ccc4c(c3)CN(c3ccnc5ccccc35)CCO4)ccc2s1 [Example 128, 7-(2-methyl-1,3-benzothiazol-5-yl)-4-quinolin-4-yl-2,3,4,5-tetrahydro-1,4-benzoxazepine] | ≥ 2000 | ≥ 2000
Cc1nc2ccc(-c3ccc4c(c3)CN(c3ncnc5c3CN(C3CC3)C5)CCO4)cc2[nH]1 [Example 87, 4-(6-cyclopropyl-6,7-dihydro-5H-pyrrolo[3,4-d]pyrimidin-4-yl)-7-(2-methyl-1H-benzimidazol-6-yl)-2,3,4,5-tetrahydro-1,4-benzoxazepine] | ≥ 2000 | 250 to 1000
